Results taken from patent publication US11603373B2, “TDO2 and IDO1 inhibitors” (Genentech, Inc., priority 2017, dated 2023).

Columns and labels:
[1] = biological target: T1, IDO1 (A172+IFNg cells, high IDO expressing cells) (Homo sapiens, UniProt P14902); assay: NFK GreenScreen cell assay, inhibition of IDO in A172+IFNg cells; type: cell-based; settings: read-out: IDO cell Fluor EC50
T1 construct: A172+IFNg cells (high IDO expressing cells); endogenous in cells; host or cells: A172 cells induced with 100 ng/ml IFNγ
Source text: (§1) Cells are counted on a Vi-Cell (Beckman Coulter). […] The final DMSO concentration is 0.5%.

[2] = biological target: T2, TDO2 (SW48 cells, high TDO expressing cells) (Homo sapiens, UniProt P48775); assay: NFK GreenScreen cell assay, inhibition of TDO in SW48 cells; type: cell-based; settings: read-out: TDO2 Cell Fluor EC50
T2 construct: SW48 cells (high TDO expressing cells); endogenous in cells; host or cells: SW48 cells
Source text: as §1

T1 sequence (P14902 whole entry): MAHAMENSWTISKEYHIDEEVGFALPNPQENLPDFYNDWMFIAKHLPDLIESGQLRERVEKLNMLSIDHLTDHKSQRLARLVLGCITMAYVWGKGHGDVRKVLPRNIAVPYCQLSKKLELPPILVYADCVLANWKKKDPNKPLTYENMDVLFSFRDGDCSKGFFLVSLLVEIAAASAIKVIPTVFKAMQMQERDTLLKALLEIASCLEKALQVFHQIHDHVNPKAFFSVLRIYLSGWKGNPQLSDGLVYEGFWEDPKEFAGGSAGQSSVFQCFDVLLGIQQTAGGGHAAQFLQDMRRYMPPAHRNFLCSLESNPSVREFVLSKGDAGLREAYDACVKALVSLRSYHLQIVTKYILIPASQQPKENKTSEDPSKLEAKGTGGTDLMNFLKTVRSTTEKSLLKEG
T2 sequence (P48775 whole entry): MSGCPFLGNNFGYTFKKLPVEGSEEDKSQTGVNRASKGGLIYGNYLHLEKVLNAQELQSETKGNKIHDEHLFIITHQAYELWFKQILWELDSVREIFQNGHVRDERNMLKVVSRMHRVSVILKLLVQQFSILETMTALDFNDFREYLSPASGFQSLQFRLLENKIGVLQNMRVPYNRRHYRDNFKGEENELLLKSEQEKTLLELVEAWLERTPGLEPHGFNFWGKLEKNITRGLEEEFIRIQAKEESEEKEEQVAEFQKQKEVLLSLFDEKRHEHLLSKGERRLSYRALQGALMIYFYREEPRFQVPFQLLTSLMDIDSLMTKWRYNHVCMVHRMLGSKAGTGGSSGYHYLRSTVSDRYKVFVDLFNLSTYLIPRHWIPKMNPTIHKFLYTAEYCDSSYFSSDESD

SMILES	EC50 [1] [µM]	EC50 [2] [µM]
CC(C)(C)OC(=O)N1[C@@H]2CC[C@H]1C[C@@]1(C[C@H]([C@H]3c4ccccc4-c4cncn43)[C@H]1O)C2 (single isomer, unassigned) [Example 12f]	1.9	11
CC(C)(C)OC(=O)N1[C@@H]2CC[C@H]1C[C@]1(C[C@H]([C@@H]3c4ccccc4-c4cncn43)[C@H]1O)C2 (single isomer, unassigned) [Example 12g]	4.7	2.1
CC(C)(C)OC(=O)N1[C@@H]2CC[C@H]1C[C@@]1(C[C@@H]([C@H]3c4ccccc4-c4cncn43)[C@@H]1O)C2 (single isomer, unassigned) [Example 12h]	7	13
CC(C)(C)OC(=O)N1[C@@H]2CC[C@H]1C[C@@]1(C[C@H]([C@@H]3c4ccccc4-c4cncn43)[C@@H]1O)C2 (single isomer, unassigned) [Example 12i]	5.8	13
CC(C)(C)OC(=O)N1[C@@H]2CC[C@H]1C[C@]1(C[C@@H]([C@H]3c4ccccc4-c4cncn43)[C@H]1O)C2 (single isomer, unassigned) [Example 12j]	0.12	0.74
CC(C)(C)OC(=O)N1[C@@H]2CC[C@H]1C[C@@]1(C[C@H]([C@H]3c4ccccc4-c4cncn43)[C@@H]1O)C2 (single isomer, unassigned) [Example 12k]	13	15
CC(C)(C)OC(=O)N1[C@@H]2CC[C@H]1C[C@]1(C[C@@H]([C@@H]3c4ccccc4-c4cncn43)[C@H]1O)C2 (single isomer, unassigned) [Example 12l]	12	0.41
CC(C)(C)OC(=O)N1[C@@H]2CC[C@H]1C[C@@]1(C[C@@H]([C@@H]3c4ccccc4-c4cncn43)[C@@H]1O)C2 (single isomer, unassigned) [Example 12m]	2	15
O=S1(=O)CCC2(CC[C@H]([C@@H]3c4ccccc4-c4cncn43)[C@@H]2O)CC1 (single isomer, unassigned) [Example 13b]	7.2	3.3
O=S(=O)(C(F)F)N1CCC2(CC1)C[C@@H]([C@H]1c3ccccc3-c3cncn31)[C@H]2O (single isomer, unassigned) [Example 14b]	0.068	0.13
CP(C)(=O)N1CCC2(CC1)C[C@@H]([C@H]1c3ccccc3-c3cncn31)[C@H]2O (single isomer, unassigned) [Example 15b]	1.1	1.5
CC(=O)N1CC2(CC[C@H]([C@@H]3c4ccccc4-c4cncn43)[C@H]2O)C1 (single isomer, unassigned) [Example 17]	1.3	0.67
NS(=O)(=O)N1CC2(CC[C@H]([C@@H]3c4ccccc4-c4cncn43)[C@H]2O)C1 (single isomer, unassigned) [Example 18]	0.58	0.11
COCCOC(=O)N1CCC2(CC[C@@H]([C@H]3c4ccccc4-c4cncn43)[C@H]2O)CC1 (single isomer, unassigned) [Example 19]	0.099	0.094
CC(C)(C)OC(=O)N1CC2CCC(C1)C21C[C@@H]([C@H]2c3ccccc3-c3cncn32)[C@H]1O (single isomer, unassigned) [Example 22b]	12	5
CC(C)(C)OC(=O)N[C@H]1CC[C@@]2(CC1)C[C@H]([C@@H]1c3ccccc3-c3cncn31)[C@H]2O (single isomer, unassigned) [Example 24a]	4.4	6.9
CC(C)(C)OC(=O)N[C@H]1CC[C@@]2(CC1)C[C@@H]([C@H]1c3ccccc3-c3cncn31)[C@@H]2O (single isomer, unassigned) [Example 24b]	1.3	2.1
CC(C)(C)OC(=O)N[C@H]1CC[C@]2(CC1)C[C@H]([C@@H]1c3ccccc3-c3cncn31)[C@H]2O (single isomer, unassigned) [Example 24c]	5.2	0.73
CC(C)(C)OC(=O)N[C@H]1CC[C@@]2(CC1)C[C@@H]([C@@H]1c3ccccc3-c3cncn31)[C@H]2O (single isomer, unassigned) [Example 24d]	1.1	2.5

SMILES	EC50 [1] [µM]	EC50 [2] [µM]
CC(C)(C)OC(=O)N[C@H]1CC[C@@]2(CC1)C[C@H]([C@H]1c3ccccc3-c3cncn31)[C@@H]2O (single isomer, unassigned) [Example 24e]	10	16
CC(C)(C)OC(=O)N[C@H]1CC[C@]2(CC1)C[C@@H]([C@@H]1c3ccccc3-c3cncn31)[C@@H]2O (single isomer, unassigned) [Example 24h]	5.4	16
CC(C)(C)OC(=O)N[C@H]1CC[C@]2(CC1)C[C@H]([C@H]1c3ccccc3-c3cncn31)[C@H]2O (single isomer, unassigned) [Example 24i]	0.96	0.26
CC(C)(C)OC(=O)N[C@H]1CC[C@@]2(CC1)C[C@@H]([C@H]1c3ccccc3-c3cncn31)[C@@H]2O (single isomer, unassigned) [Example 24j]	0.64	0.14
CC(C)(C)OC(=O)N[C@H]1CC[C@@]2(CC1)C[C@@H]([C@H]1c3ccccc3-c3cncn31)[C@H]2O (single isomer, unassigned) [Example 24l]	1.9	8.6
CC(C)(C)OC(=O)N[C@H]1CC[C@]2(CC1)C[C@H]([C@H]1c3ccccc3-c3cncn31)[C@@H]2O (single isomer, unassigned) [Example 24n]	0.24	1.1
CC(C)(C)OC(=O)N[C@H]1CC[C@@]2(CC1)C[C@H]([C@@H]1c3ccccc3-c3cncn31)[C@@H]2O (single isomer, unassigned) [Example 24p]	0.92	3.3
O=C([C@@H]1CC1(F)F)N1CCC2(CC[C@@H]([C@H]3c4ccccc4-c4cncn43)[C@H]2O)CC1 (single isomer, unassigned) [Example 25a]	0.034	0.081
O=C([C@H]1CC1(F)F)N1CCC2(CC[C@@H]([C@H]3c4ccccc4-c4cncn43)[C@H]2O)CC1 (single isomer, unassigned) [Example 25b]	0.16	0.15
CS(=O)(=O)N1CC2(CCC(C3c4ccccc4-c4cncn43)C2O)C1 (single isomer, unassigned) [compound 16, 6-(5H imidazo[5,1-a]isoindol-5-yl)-2-(methylsulfonyl)-2-azaspiro[3.4]octan-5-ol]	0.22	0.095
O=S(=O)(c1c[nH]cn1)N1CCC2(CCC(C3c4ccccc4-c4cncn43)C2O)CC1 (single isomer, unassigned) [compound 59, 8-((1H-imidazol-4-yl)sulfonyl)-2-(5H-imidazo[5,1-a]isoindol-5-yl)-8-azaspiro[4.5]decan-1-ol]	2.8	2
O=C(OCC(F)F)N1CCC2(CCC(C3c4ccccc4-c4cncn43)C2O)CC1 (single isomer, unassigned) [compound 60, 2,2-difluoroethyl 1-hydroxy-2-(5H-imidazo[5,1-a]isoindol-5-yl)-8-azaspiro[4.5]decane-8-carboxylate]	0.04	0.056
CS(=O)(=O)N1CC2CCC(C1)C21CC(C2c3ccccc3-c3cncn32)C1O (single isomer, unassigned) [compound 70, 3′(5H-imidazo[5,1-a]isoindol-5-yl)-3-(methylsulfonyl)-3-azaspiro[bicyclo[3.2.1]octane-8,1′-cyclobutan]-2′-ol]	0.15	0.14
O=S(=O)(C1COC1)N1CCC2(CC1)C[C@H](C1c3ccccc3-c3cncn31)[C@@H]2O (stereo in doubt) [Example 23b, (2R,3S)-2-((5S)5H-imidazo[1,5-b]isoindol-5-yl)-7-(oxetan-3-ylsulfonyl)-7-azaspiro[3.5]nonan-3-ol]	2.5	3.2
CC(C)(C)OC(=O)N1[C@@H]2CC[C@H]1C[C@]1(C[C@H]([C@@H]3c4ccccc4-c4cncn43)[C@@H]1O)C2 [Example 12a, tert-butyl (1R,2′S,3r,3′R,5S)-2′-hydroxy-3′-((R)-5H-imidazo[5,1-a]isoindol-5-yl)-8-azaspiro[bicyclo[3.2.]octane-3,1′-cyclobutane]-8-carboxylate]	0.92	1.2
N#CCS(=O)(=O)N1CCC2(CC1)CC(C1c3ccccc3-c3cncn31)C2O (stereo not shown) [Example 21a, 2-[[3-hydroxy-2-(5H-imidazo[,5-b]isoindol-5-yl)-7-azaspiro[3.5]nonan-7-yl]sulfonyl]acetonitrile]	0.15	0.18
N#CCS(=O)(=O)N1CCC2(CC1)C[C@@H]([C@H]1c3ccccc3-c3cncn31)[C@H]2O [Example 21b, (2S,3R)-2-[[3-hydroxy-2-((5S)-5H-imidazo[1,5-b]isoindol-5-yl)-7-azaspiro[3.5]nonan-7-yl]sulfonyl]acetonitrile]	0.075	0.1
N#CCS(=O)(=O)N1CCC2(CC1)C[C@H]([C@@H]1c3ccccc3-c3cncn31)[C@@H]2O [Example 21c, (2R,3S)-2-[[3-hydroxy-2-((5R)-5H-imidazo[1,5-b]isoindol-5-yl)-7-azaspiro[3.5]nonan-7-yl]sulfonyl]acetonitrile]	4.8	5.9
CC(C)(C)OC(=O)N1CC2CCC(C1)C21C[C@@H]([C@@H]2c3ccccc3-c3cncn32)[C@H]1O (stereo partly drawn) [Example 22d, tert-butyl (2′R,3′S)-2′-hydroxy-3′-((R)-5H-imidazo[5,1-a]isoindol-5-yl)-3-azaspiro[bicyclo[3.2.1]octane-8,1′-cyclobutane]-3-carboxylate]	1.4	0.44
